What all share (format): cell-based
For assay [1], the system named is P388 murine leukemia cell line. As to the kind of experiment: Antiproliferative MTT assay, P388 cells. The note with it: Mus musculus, 48-h exposure, read-out: Activity (IC50) P-388. The method, then: (§1) Extracts and compounds were analyzed as to their effects on proliferation of A549 human adenocarcinoma, PANC-1 human pancreatic and P388 murine leukemia cell lines. P388 and NCI/ADR cells were obtained from Dr. R. Camalier, National Cancer Institute, Bethesda, Md., and A549 and PANC-1 cells were obtained from American Type Culture Collection, Rockville, Md. All cell lines were maintained in Roswell Park Memorial Institute (RPMI) medium 1640 supplemented with 10% fetal bovine sernm. All cell lines are cultured in plastic tissue culture flasks and kept in an incubator at 37° C. in humidified air containing 5% CO2. Prior to testing, antibiotic-free stock cultures of each of the cell lines were subcultured to […] by dilution in fresh growth medium at 2 to 3 day intervals.
(§2) To assess the antiproliferative effects of extracts and compounds against the P388 cell line, 200 μl cultures (96-well tissue culture plates, Nunc, Denmark) are established at 1×10^5 cells/ml in drug-free medium or medium containing the test agent at 10.0, 1.0, 0.10 and 0.010 μg/ml. Solvent for all dilutions ethanol. All experimental cultures are initiated in medium containing gentamycin su fate (50 μg/ml; Schering Corporation, Kenilworth, N.J.). After 48-h exposures, P388 cells are enumerated using 3-[4,5-dimethylthiazol-2-yl]-2,5-diphenyltetrazolium bromide (MTT) as described below (M. C. Alley et al., 1988, Cancer Res. 48:589.
(§3) To quantitate the effects of pure compounds on cell proliferation and resulting IC50 values, 75 μl of warm growth media containing 5 mg/ml MTT is added to each well, cultures returned to the incubator, and left undisturbed for 90 minutes. To spectrophotometrically quantitate formation of reduced formazan, plates are centrifuged (900×g, 5 minutes), culture fluids removed by aspiration, and 200 μl of acidified isopropanol (2 ml concentrated HCl/liter isopropanol) added per well. The absorbance of the resulting solutions is measured at 570 nm with a plate reader (TECAN Spectra II Plate Reader, TECAN U.S., Research Triangle Park, NC). […]

The next assay relates to NCI/ADR cells. In words: Antiproliferative MTT assay, NCI/ADR cells. The note with it: Homo sapiens, NCI/ADR-RES. As for the experimental part:
as §1, §3

The test system of assay [2] is A549 human adenocarcinoma cell line. In words: Antiproliferative MTT assay, A549 cells. The note with it: additional 48 hour exposure. The method, then: as §1, §2
(§4) Similar procedures are utilized for A549 and PANC-1 cells which require an additional 48 hour exposure prior to MTT addition. Results are expressed as percent inhibition compared to the negative (no drug) control. Positive drug controls are included to monitor drug sensitivity of each of the cell lines. These include varying dilutions of 5-fluorouracil and adriamycin.
(§5) To quantitate the effects of pure compounds on cell proliferation and resulting IC50 values, 75 μl of warm growth media containing 5 mg/ml MTT is added to each well, cultures returned to the incubator, and left undisturbed for 90 minutes. […]
On the technique in general: Tetrazolium dyes change colour on reduction, which living cells bring about.

Assay [3] has as its system PANC-1 human pancreatic cell line. In words: Antiproliferative MTT assay, PANC-1 cells. The note with it: additional 48 hour exposure. As for the experimental part: as §1, §2, §4, §5

By IC50 is commonly meant the concentration at which inhibition is half-maximal.

Some results are limits rather than exact numbers.

Consider `CSC1=CC(=O)C(Br)=CC12CCNC1=C2c2nccc3cn(C)c(c23)C1=O` (stereo not drawn) [Discorhabdin S], for which the half-maximal inhibitory concentration (IC50) is 3.08 µg/mL in assay [1], above 5 µg/mL in the assay with NCI/ADR cells, above 5 µg/mL in assay [2] and 2.6 µg/mL in assay [3].
For `CSC1=CC(=O)C(Br)=CC12C=CNC1=C2c2nccc3cn(C)c(c23)C1=O` (stereo not drawn) [Discorhabdin T], the IC50 in assay [1] was above 5 µg/mL; in the assay on NCI/ADR cells, above 5 µg/mL; in assay [2], above 5 µg/mL; in assay [3], 0.7 µg/mL.
For the compound `CSC1=CC(=O)C(Br)=CC12C=CNC1=C2C2=NCCc3cn(C)c(c32)C1=O` (stereo not drawn) [Discorhabdin U], the IC50 in assay [1] came to 0.17 µg/mL; in the assay with NCI/ADR cells, 0.22 µg/mL; in assay [2], 0.34 µg/mL; in assay [3], 0.069 µg/mL.

For the origin of these results see patent US6835736B1, “Discorhabdin compounds and methods of use” (Harbor Branch Oceanographic Institution, Inc., priority 2003, dated 2004).
